Laboratory results taken from article PMC6136660 (Steroids, 2018).

Legend:
Assay type in all cases: in vivo, human
[1] = Phase 1 single ascending dose (SAD) pharmacokinetics, fasted; details: for Vd/F: read-out: Vz/F; for k el: read-out: λz (converted)
Experimental: This clinical trial was a randomized, double-blind, placebo controlled single ascending (SAD) and multiple ascending (MAD) study to evaluate the safety, tolerability, and pharmacokinetics of vamorolone in health adult subjects. The study protocol and its amendments were reviewed and approved by an Institutional Review Board. It was conducted in accordance with the principles of the Declaration of Helsinki in place at the time of study conduct and in compliance with the International Council on Harmonisation (ICH) E6 Guideline for Good Clinical Practice.
(§1) In the SAD part of the study, 7 cohorts were to be enrolled. Eight subjects were assigned to each of Cohorts 1 to 5 and 7 and received a single oral dose of vamorolone (planned as 0.1 mg/kg, 0.3 mg/kg, 1.0 mg/kg, 3.0 mg/kg, 8.0 mg/kg, and 20.0 mg/kg, respectively) or placebo under fasted conditions. Six subjects were assigned to Cohort 6 and were administered a single oral dose of 8.0 mg/kg vamorolone within 30 min of beginning a high fat/high calorie meal.
(§2) Subjects in Cohorts 1 through 5 and 7 were randomized to receive vamorolone or placebo in a 3:1 ratio (6 subjects received vamorolone, and 2 subjects received placebo) sequentially. In Cohort 1, 3 sentinel subjects were administered vamorolone or placebo in a 2:1 ratio. Following a review of sentinel safety and tolerability data (including reported adverse events [AEs], clinical laboratory tests, vital signs, and electrocardiograms [ECGs]), the remaining 5 subjects were randomized to receive vamorolone or placebo in a 4:1 ratio and dosed no earlier than 48 h after sentinel dosing. In Cohorts 2 to 5, and 7, subjects were administered vamorolone or placebo in a 3:1 ratio. Once Cohort 5 was completed and safety data had been reviewed, subjects in Cohort 6 were administered a single oral dose of 8.0 mg/kg vamorolone within 30 min of beginning a standard high fat/high calorie meal.
The initial starting dose for the vamorolone SAD study was chosen based on 10% of the NOAEL in the most sensitive species (mouse) (0.1 mg/kg). Doses were then escalated by 3-fold increments for 6 dose groups (0.1, 0.3, 1.0, 3.0, 9.0, 20.0 mg/kg). Eight adult male volunteers were studied in each dose group (6 drug-treated, 2 placebo).

[2] = SAD food effect cohort (8 mg/kg with high fat/high calorie meal) pharmacokinetics
Experimental: as §1, §2

[3] = Phase 1 multiple ascending dose (MAD) pharmacokinetics, 14 days once daily; details: for CL/F: human, plasma, oral, read-out: CL/F, range of geometric mean values
Experimental: The MAD part of the study was initiated after a review of safety and PK data from SAD cohorts 1 to 6. In the MAD part, 4 cohorts containing 8 subjects each were randomized to receive vamorolone or placebo, in a 3:1 ratio, once daily (QD) for 14 days. The duration of dosing in the MAD part was determined based on the PK data from the SAD part. In each cohort, 3 sentinel subjects were administered vamorolone or placebo, in a 2:1 ratio.
The planned dose levels for the MAD part were 1.0 mg/kg (Cohort 1), 3.0 mg/kg (Cohort 2), 9.0 mg/kg (Cohort 3), and 20.0 mg/kg (Cohort 4) or until the maximum tolerated dose (MTD) was identified.
Daily doses of vamorolone (1.0, 3.0, 9.0 and 20.0 mg/kg/day) were given in the morning in a fasted state, daily for 14 days, and PK determined on day 1 (after single dose) and day 14 (after the 14th dose). Consistent with the SAD, mean plasma vamorolone concentrations and dose-related PK parameters increased in a dose related manner (Fig. 3). Log-log plots of the individual subject Cmax and AUC (inf) were linear. Although the slopes ranged from 0.827 to 0.898, the deviation from 1.0 may be a consequence of between-subject variability and not indicative of a less than dose-proportional increase in exposure.

[4] = male, human, plasma, single oral 0.1 mg/kg, fasted, geometric mean (%CV)
[5] = male, human, plasma, single oral 0.3 mg/kg, fasted, geometric mean (%CV)
[6] = male, human, plasma, single oral 1 mg/kg, fasted, geometric mean (%CV)
[7] = male, human, plasma, single oral 3 mg/kg, fasted, geometric mean (%CV)
[8] = male, human, plasma, single oral 8 mg/kg, fasted, geometric mean (%CV)
[9] = male, human, plasma, single oral 20 mg/kg, fasted, geometric mean (%CV)
[10] = human, plasma, single oral 8 mg/kg, fed, geometric mean (%CV)

C[C@@H]1C[C@H]2[C@@H]3CCC4=CC(=O)C=C[C@]4(C)C3=CC[C@]2(C)[C@@]1(O)C(=O)CO [vamorolone]
slope of log plot of AUC(inf) vs dose ([1]; SAD 0.1-20 mg/kg): ~1.0
slope of log plot of Cmax vs dose ([1]; SAD 0.1-20 mg/kg): < 1.0
CL/F ([1]; male, human, plasma, oral, across single 0.1 to 20 mg/kg doses, fasted, read-out: CL/F, range of geometric mean values): 29.3 to 38.5 mL/min/kg
half-life ([1]; male, human, plasma, oral, healthy subjects, approximate overall, read-out: half-life (converted)): ~3 h
AUC(0-inf) [1, 4]: 49.5 ng·h/mL
AUC(0-t) [1, 4]: 41.9 ng·h/mL
Cmax [1, 4]: 13.1 ng/mL
CL/F ([1]; male, human, plasma, single oral 0.1 mg/kg, fasted, geometric mean (%CV), read-out: CL/F (converted)): 33.7 mL/min/kg
Vd/F [1, 4]: 4.98 L/kg
half-life ([1]; male, human, plasma, single oral 0.1 mg/kg, fasted, geometric mean (%CV), read-out: t½ (converted)): 1.71 h
k el [1, 4]: 0.000113 s⁻¹
Tmax ([1]; male, human, plasma, single oral 0.1 mg/kg, fasted, median, read-out: Tmax): 1.5 h
AUC(0-inf) [1, 5]: 170 ng·h/mL
AUC(0-t) [1, 5]: 161 ng·h/mL
Cmax [1, 5]: 50.8 ng/mL
CL/F ([1]; male, human, plasma, single oral 0.3 mg/kg, fasted, geometric mean (%CV), read-out: CL/F (converted)): 29.3 mL/min/kg
Vd/F [1, 5]: 4.07 L/kg
half-life ([1]; male, human, plasma, single oral 0.3 mg/kg, fasted, geometric mean (%CV), read-out: t½ (converted)): 1.6 h
k el [1, 5]: 0.00012 s⁻¹
Tmax ([1]; male, human, plasma, single oral 0.3 mg/kg, fasted, median, read-out: Tmax): 1.5 h
AUC(0-inf) [1, 6]: 500 ng·h/mL
AUC(0-t) [1, 6]: 486 ng·h/mL
Cmax [1, 6]: 122 ng/mL
CL/F ([1]; male, human, plasma, single oral 1 mg/kg, fasted, geometric mean (%CV), read-out: CL/F (converted)): 33.3 mL/min/kg
Vd/F [1, 6]: 5.22 L/kg
half-life ([1]; male, human, plasma, single oral 1 mg/kg, fasted, geometric mean (%CV), read-out: t½ (converted)): 1.81 h
k el [1, 6]: 0.000106 s⁻¹
Tmax ([1]; male, human, plasma, single oral 1 mg/kg, fasted, median, read-out: Tmax): 1.75 h
AUC(0-inf) [1, 7]: 1600 ng·h/mL
AUC(0-t) [1, 7]: 1580 ng·h/mL
Cmax [1, 7]: 305 ng/mL
CL/F ([1]; male, human, plasma, single oral 3 mg/kg, fasted, geometric mean (%CV), read-out: CL/F (converted)): 31.3 mL/min/kg
Vd/F [1, 7]: 6.76 L/kg
half-life ([1]; male, human, plasma, single oral 3 mg/kg, fasted, geometric mean (%CV), read-out: t½ (converted)): 2.5 h
k el [1, 7]: 7.7e-05 s⁻¹
Tmax ([1]; male, human, plasma, single oral 3 mg/kg, fasted, median, read-out: Tmax): 1.75 h
AUC(0-inf) [1, 8]: 3600 ng·h/mL
AUC(0-t) [1, 8]: 4000 ng·h/mL
Cmax [1, 8]: 718 ng/mL
CL/F ([1]; male, human, plasma, single oral 8 mg/kg, fasted, geometric mean (%CV), read-out: CL/F (converted)): 37 mL/min/kg
Vd/F [1, 8]: 10.4 L/kg
half-life ([1]; male, human, plasma, single oral 8 mg/kg, fasted, geometric mean (%CV), read-out: t½ (converted)): 3.25 h
k el [1, 8]: 5.93e-05 s⁻¹
Tmax ([1]; male, human, plasma, single oral 8 mg/kg, fasted, median, read-out: Tmax): 1.78 h
AUC(0-inf) [1, 9]: 8650 ng·h/mL
AUC(0-t) [1, 9]: 8540 ng·h/mL
Cmax [1, 9]: 1650 ng/mL
CL/F ([1]; male, human, plasma, single oral 20 mg/kg, fasted, geometric mean (%CV), read-out: CL/F (converted)): 38.5 mL/min/kg
Vd/F [1, 9]: 14.2 L/kg
half-life ([1]; male, human, plasma, single oral 20 mg/kg, fasted, geometric mean (%CV), read-out: t½ (converted)): 4.26 h
k el [1, 9]: 4.52e-05 s⁻¹
Tmax ([1]; male, human, plasma, single oral 20 mg/kg, fasted, median, read-out: Tmax): 1.5 h
Tmax ([1]; male, human, serum, oral suspension formulation (4% vamorolone by weight), read-out: time of peak serum concentrations): ~3 h
CL/F ([1]; single oral 0.1 mg/kg, fasted, geometric mean (%CV)): 168 (20.8) (6) L/h
CL/F ([1]; single oral 0.3 mg/kg, fasted, geometric mean (%CV)): 142 (14.4) (6) L/h
CL/F ([1]; single oral 1 mg/kg, fasted, geometric mean (%CV)): 165 (12.0) (6) L/h
CL/F ([1]; single oral 3 mg/kg, fasted, geometric mean (%CV)): 152 (18.5) (6) L/h
CL/F ([1]; single oral 8 mg/kg, fasted, geometric mean (%CV)): 196 (57.6) (4) L/h
CL/F ([1]; single oral 20 mg/kg, fasted, geometric mean (%CV)): 180 (29.8) (4) L/h
AUC(0-t) ratio of the geometric means ([2]; 8 mg/kg, fed vs fasted): 2.54
AUC(inf) ratio of the geometric means ([2]; 8 mg/kg, fed vs fasted): 2.82
Cmax ratio of the geometric means ([2]; 8 mg/kg, fed vs fasted): 2.53
increase in bioavailability with a 40 g fat meal ([2]; 8 mg/kg, fed vs fasted): 250%
increase in Cmax, AUC(0-t), and AUC(inf) under fed conditions ([2]; 8 mg/kg, high calorie/high fat meal (40 g fat) vs fasted): 2.5 fold
increase in Tmax under fed conditions ([2]; 8 mg/kg, high calorie/high fat meal vs fasted): ~ 2 fold
AUC(0-inf) [2, 10]: 10200 ng·h/mL
AUC(0-t) [2, 10]: 10100 ng·h/mL
Cmax [2, 10]: 1820 ng/mL
CL/F ([2]; human, plasma, single oral 8 mg/kg, fed, geometric mean (%CV), read-out: CL/F (converted)): 13.2 mL/min/kg
Vd/F ([2]; human, plasma, single oral 8 mg/kg, fed, geometric mean (%CV), read-out: Vz/F): 2.67 L/kg
half-life ([2]; human, plasma, single oral 8 mg/kg, fed, geometric mean (%CV), read-out: t½ (converted)): 2.35 h
k el ([2]; human, plasma, single oral 8 mg/kg, fed, geometric mean (%CV), read-out: λz (converted)): 8.19e-05 s⁻¹
Tmax ([2]; human, plasma, single oral 8 mg/kg, fed, median): 4 h
CL/F ([2]; single oral 8 mg/kg, fed, geometric mean (%CV)): 66.7 (28.4) (6) L/h
drug accumulation between daily doses ([3]; Day 1 vs Day 14, once daily 14 days): essentially no drug accumulation between doses
CL/F ([3]; MAD Day 1, across 1-20 mg/kg/day): 23.7 to 33.7 mL/min/kg
CL/F ([3]; MAD Day 14, across 1-20 mg/kg/day): 21 to 35.8 mL/min/kg
